This note sets out measurements from PMC7893776, “Selecting an anti-malarial clinical candidate from two potent dihydroisoquinolones” (Malaria Journal, 2021).

Data set [1] relates to mouse plasma proteins. As to the kind of experiment: Plasma protein binding (RED), mouse. The data set is classed as in vitro ADME. As to conditions: average of 20, 4, 0.8 µM. The procedure: (§1) A Rapid Equilibrium Dialysis (RED) Plate (Thermo Scientific, catalog #, PI-90007) was used to determine the percentage of compound binding to plasma proteins. The positive control for this experiment was propranolol-HCl (10 mM in DMSO) and the internal standard was warfarin (2 µM in methanol). 10 mM stocks of compound in DMSO were diluted with DMSO acetonitrile (1:4, v:v) to three different intermediate concentrations: high (2 mM), medium (0.4 mM) and low (0.08 mM). A 10 mM stock of propranolol in DMSO was diluted to 0.4 mM concentration in DMSO:acetonitrile (1:4 v:v). In 16 Eppendorf tubes, the control (10 µL) or each of three compound dilutions (10 µL) were each added to separate aliquots of mouse, rat, dog, and human plasma (990 µL). In the RED plate, potassium phosphate buffer (500 µL, 0.1 M, pH 7.4, 37 °C) was placed in every white well and each plasma/compound mixture was added to each of 3 red wells. […] The compounds and internal standard were detected by selected ion recording (SIR). Using the peak area ratio of compound to warfarin from the SIR spectra, the percentage of free compound [1] and bound compound [2] were calculated using the following equations: (1) % free = (concentration buffer chamber/concentration plasma chamber)*100, and (2) % bound = 100 − % free.

Data set [2] concerns dog plasma proteins. As to the kind of experiment: Plasma protein binding (RED), dog. The data set is classed as in vitro ADME. As to conditions: average of 20, 4, 0.8 µM. The procedure: as §1
A short description of data set [3]: Kinetic solubility. The data set is classed as physicochemical. The procedure:
Solubility assays were carried out on a Biomek FX lab automation workstation (Beckman Coulter, Inc., Fullerton, CA) using µSOL Evolution software (pION Inc., Woburn, MA). Compound stock (10 mM in DMSO, 10 µL) was added to 1-propanol (190 µL) to make a reference stock plate. Reference stock solution (5 µL) was mixed with 1-propanol (70 µL) and citrate phosphate buffered saline (75 µL) to make the reference plate and the UV spectrum (250 nm–500 nm) of the […] was read. Test compound stock (10 mM in DMSO, 6 µL) was added to buffer (594 µL) in a 96-well storage plate and mixed. The storage plate was sealed and incubated at room temperature for 18 h. The suspension was then filtered through a 96-well filter plate (pION Inc., Woburn, MA). Filtrate (75 µL) was mixed with 1-propanol (75 µL) to make the sample plate, and the UV spectrum (250 nm – 500 nm) of the sample plate was read. Calculation was carried out by µSOL Evolution software based on the […] (area under curve) of UV spectrum of the sample plate and the reference plate. All compounds were tested in triplicate.

Data set [4] has as its system human plasma proteins. As to the kind of experiment: Plasma protein binding (RED), human. The data set is classed as in vitro ADME. Conditions: average of 20, 4, 0.8 µM. The method, then: as §1
Data set [5] in a line: Rat single oral dose toxicology / toxicokinetic study. The data set is classed as in vivo, male Sprague Dawley rats. The method, then:
The high dose levels of both compounds (50, 100, 200 mg/kg, PO, (+)-SJ733/311) were also independently tested by SRI, with a single oral gavage administration. Blood (through jugular vein) and urine were collected at time points up to 72 and 24 h post dose, respectively. Supernatant plasma was removed following centrifugation and stored frozen (− 70 °C) until LC–MS analysis. For toxicology studies, male Sprague Dawley rats were administered 50, 100, 250, 500, or 750 mg/kg of (r)-SJ733 or (r)-SJ311 by oral gavage (one dose per animal). Body weights were recorded on Day 1 prior to dose administration and on Day 4. Blood samples (400 µL) were collected at 4 and 24 h post drug administration from the retro-orbital sinus. Potassium EDTA treated plasma was collected and kept frozen at -70 °C for bioanalytical analysis. Rat samples from the toxicokinetic study at SRI were analyzed at SJCRH using the method described above. The calibration range was from 47 to 26,000 ng/mL for plasma.

Data set [6] is described as follows: LogP, Gemini Profiler titration. The data set is classed as physicochemical. The procedure: LogP was measured using a Gemini Profiler instrument (pION Inc., Billerica, MA). 1–2 mg of compound was dissolved in octanol (0.5 mL) in a test tube. The test tube was purged with argon and a magnetic stir bar was added. The solution was treated with aqueous KCl (2.5 mL, 0.15 M) and stirred for 10 min. The pH was adjusted to 2 by addition of aqueous HCl (0.5 M). The resulting solution was titrated by adding aqueous KOH (0.5 M) in small aliquots (controlled by the Gemini Profiler software), until the pH reached 12. The volume of each addition and the corresponding pH of the test solution were recorded. Data were processed using pS software. The data points were fitted to a Bjerrum plot to achieve the best GOF (goodness of fitness) and a logP value was obtained. All measurements were conducted in triplicate.

Data set [7] in a line: Storage stability of samples at −80 °C. Conditions: stored at − 80 °C for more than 14 days, ± 15% variance. The text has this:
All plasma samples that were shipped elsewhere from the testing facility were all analyzed within the validated stability time period.

For `N#Cc1cc(NC(=O)C2c3ccccc3C(=O)N(CC(F)(F)F)C2c2cn[nH]c2)ccc1F` (racemic) [(r)-SJ311], the “% bound” value in data set [1] turned out to be 93.7 ± 0.7%; in data set [2], 90.0 ± 1.0%; in data set [4], 95.3 ± 0.6%. The Kinetic solubility in data set [3] (pH 3) turned out to be 80 ± 7 µM; in data set [3] (pH 5), 80 ± 7 µM; in data set [3] (pH 7.4), 66 ± 7 µM. The clinical observation result in data set [5] (rats, 100 and 500 mg/kg groups, single oral gavage) was “Ruffled fur”. In addition, the LogP in data set [6] is 1.24 ± 0.28 (logP( +)).

For `N#Cc1cc(NC(=O)[C@H]2c3ccccc3C(=O)N(CC(F)(F)F)[C@@H]2c2cccnc2)ccc1F` (racemic) [SJ733], in data set [7], the storage stability entry is “stable”. Moreover, the “AUCinf at the highest event free dose” value in data set [5] (rat) was “over 217 µM h”. In addition, in data set [5] (rat, at any dose), the adverse events entry is on record as “No adverse events”. Besides, in data set [5] (rat, in vivo), the provable therapeutic window entry was “above 40”.

For the molecule `N#Cc1cc(NC(=O)C2c3ccccc3C(=O)N(CC(F)(F)F)C2c2cccnc2)ccc1F` (racemic) [(r)-SJ733], the “% bound” value was found to be 95.7 ± 0.6% in data set [1], 88.3 ± 3.1% in data set [2] and 94.3 ± 0.6% in data set [4]. Further, the Kinetic solubility in data set [3] (pH 3) came out at 84 ± 3 µM; in data set [3] (pH 5), 84 ± 3 µM; in data set [3] (pH 7.4), 65 ± 4 µM. In addition, the LogP in data set [6] is given as 2.95 ± 0.03 (logP( +)).

With `N#Cc1cc(NC(=O)[C@H]2c3ccccc3C(=O)N(CC(F)(F)F)[C@@H]2c2cn[nH]c2)ccc1F` [SJ311], in data set [7], the storage stability result is listed as “stable”.
